# In ChEMBL document CHEMBL2331376, “Ridaifen B, a tamoxifen derivative, directly binds to Grb10 interacting GYF protein 2” (Bioorg Med Chem, 2013):
# Calls of active or inactive are those of the source. No cut-off for these calls is given here.
# Legend:
# [1] = biological target: T1, GRB10-interacting GYF protein 2 (Homo sapiens, UniProt Q6Y7W6); experiment: (§1) Binding affinity to recombinant His-tagged Grb10 interacting GYF protein 2 (745-1030 amino acids) (unknown origin) by surface plasmon resonance analysis
# T1 sequence (Q6Y7W6 whole entry): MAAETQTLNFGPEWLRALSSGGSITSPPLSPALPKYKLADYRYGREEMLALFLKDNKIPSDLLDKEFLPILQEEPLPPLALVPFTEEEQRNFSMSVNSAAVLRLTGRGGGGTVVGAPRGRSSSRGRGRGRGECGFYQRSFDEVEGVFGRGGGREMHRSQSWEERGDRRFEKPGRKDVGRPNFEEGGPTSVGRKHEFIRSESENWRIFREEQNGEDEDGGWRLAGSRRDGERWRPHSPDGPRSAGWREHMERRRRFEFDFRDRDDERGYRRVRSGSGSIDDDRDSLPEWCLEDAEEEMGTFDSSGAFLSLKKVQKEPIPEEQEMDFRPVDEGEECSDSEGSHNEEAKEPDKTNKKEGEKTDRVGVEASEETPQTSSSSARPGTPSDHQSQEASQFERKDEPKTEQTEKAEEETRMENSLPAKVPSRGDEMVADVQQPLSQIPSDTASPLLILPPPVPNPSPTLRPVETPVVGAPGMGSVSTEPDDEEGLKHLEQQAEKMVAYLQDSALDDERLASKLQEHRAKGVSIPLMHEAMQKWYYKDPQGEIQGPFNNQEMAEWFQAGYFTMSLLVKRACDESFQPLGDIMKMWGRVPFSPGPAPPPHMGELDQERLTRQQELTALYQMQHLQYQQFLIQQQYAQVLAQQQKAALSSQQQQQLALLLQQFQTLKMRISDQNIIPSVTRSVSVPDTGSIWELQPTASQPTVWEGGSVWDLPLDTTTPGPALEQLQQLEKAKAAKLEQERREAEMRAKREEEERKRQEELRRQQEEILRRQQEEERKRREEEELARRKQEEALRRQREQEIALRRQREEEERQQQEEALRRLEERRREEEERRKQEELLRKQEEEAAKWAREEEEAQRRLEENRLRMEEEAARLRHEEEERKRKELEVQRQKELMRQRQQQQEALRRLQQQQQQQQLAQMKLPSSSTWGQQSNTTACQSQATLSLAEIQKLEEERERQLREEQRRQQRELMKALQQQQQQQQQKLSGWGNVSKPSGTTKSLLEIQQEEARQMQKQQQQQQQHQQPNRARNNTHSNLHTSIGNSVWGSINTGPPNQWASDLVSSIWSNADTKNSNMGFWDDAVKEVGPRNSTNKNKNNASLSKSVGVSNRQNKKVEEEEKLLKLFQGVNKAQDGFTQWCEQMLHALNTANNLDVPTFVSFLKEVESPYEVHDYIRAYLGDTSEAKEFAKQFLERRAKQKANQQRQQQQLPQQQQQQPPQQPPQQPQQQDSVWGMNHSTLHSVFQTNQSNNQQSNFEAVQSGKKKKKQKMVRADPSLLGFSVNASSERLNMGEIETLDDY
# [2] = biological target: T2, GRB10-interacting GYF protein 2 (Homo sapiens) (UniProt Q6Y7W6); experiment: as §1
# T2 sequence (whole entry): T1 sequence (Q6Y7W6 whole entry)
# [3] = biological target: T2, GRB10-interacting GYF protein 2 (Homo sapiens); experiment: Binding affinity to Grb10 interacting GYF protein 2 in human Jurkat cells using 10 uM compound immobilized on streptavidin-coated wells by T7 phase display screening method; type: cell-based
# [4] = biological target: T2, GRB10-interacting GYF protein 2 (Homo sapiens); experiment: Binding affinity to Flag-tagged Grb10 interacting GYF protein 2 (unknown origin) expressed in HEK293T cells by Western blotting method based pull-down assay; type: cell-based; conditions: HEK-293T
Compound,Kd [1] [nM],Activity [2],Activity [3],Activity [4]
CCC(=C(c1ccc(OCCN2CCCC2)cc1)c1ccc(OCCN2CCCC2)cc1)c1cccc(OC(=O)CCCCCNC(=O)CCCC[C@@H]2SC[C@@H]3NC(=O)N[C@@H]32)c1,186,Dose-dependent effect,Active,Active
CCC(=C(c1ccc(OCCN2CCOCC2)cc1)c1ccc(OCCN2CCOCC2)cc1)c1cccc(OC(=O)CCCCCNC(=O)CCCC[C@@H]2SC[C@@H]3NC(=O)N[C@@H]32)c1,,inactive,inactive,inactive
